Measured values as given in patent US20240166652A1, “MODULATORS OF THE INTEGRATED STRESS PATHWAY” (Calico Life Sciences LLC, priority 2017, published 2024).

These compounds were tested on ATF4 luciferase reporter in HEK293T cells (assay: ATF4-Luc assay (ATF4 luciferase reporter, tunicamycin-treated HEK293T cells)). Conditions: Homo sapiens, HEK-293T; HEK293T cells carrying the ATF4 luciferase reporter, 1 μg/mL tunicamycin, 7 hours.
Assay type: cell-based, human

| SMILES | EC50 [µM] |
| --- | --- |
| O=C(COc1ccc(Cl)c(F)c1)NC12CC(NC(=O)COc3ccc(F)c(Cl)c3)(C1)C2 [Compound 534, 2-(4-chloro-3-fluorophenoxy)-N-{3-[2-(3-chloro-4-fluorophenoxy)acetamido]bicyclo[1.1.1]pentan-1-yl}acetamide] | < 0.01 |
| COc1ncc(OCC(=O)NC23CCC(NC(=O)COc4ccc(Cl)c(F)c4)(CC2)[C@@H](O)C3)cn1 [Compound 637, 2-(4-chloro-3-fluorophenoxy)-N-[(2S)-2-hydroxy-4-{2-[(2-methoxypyrimidin-5-yl)oxy]acetamido}bicyclo[2.2.2]octan-1-yl]acetamide] | < 0.01 |
| NCc1ccc(OCC(=O)NC23CC(NC(=O)COc4ccc(Cl)c(F)c4)(C2)C3)cn1 [Compound 259, 2-{[6-(aminomethyl)pyridin-3-yl]oxy}-N-{3-[2-(4-chloro-3-fluorophenoxy)acetamido]bicyclo[1.1.1]pentan-1-yl}acetamide] | 0.25 to 0.5 |
| O=C(CO)Nc1cc(Cl)ccc1OCC(=O)NC12CC(NC(=O)COc3ccc(Cl)c(F)c3)(C1)C2 [Compound 789, 2-(4-chloro-3-fluorophenoxy)-N-(3-{2-[4-chloro-2-(2-hydroxyacetamido)phenoxy]acetamido}bicyclo[1.1.1]pentan-1-yl)acetamide] | 0.05 to 0.25 |
| O=C(COc1ccc(Cl)cc1)NC12CC(NC(=O)COc3ccc(F)c(F)c3)(C1)C2 [Compound 837, 2-(4-chlorophenoxy)-N-{3-[2-(3,4-difluorophenoxy)acetamido]bicyclo[1.1.1]pentan-1-yl}acetamide] | < 0.01 |
| O=C(COc1ccc(Cl)c(F)c1)NC12CC(N(CCO)C(=O)COc3ccc(Cl)c(F)c3)(C1)C2 [Compound 190, 2-(4-chloro-3-fluorophenoxy)-N-{3-[2-(4-chloro-3-fluorophenoxy)acetamido]-bicyclo[1.1.1]pentan-1-yl}-N-(2-hydroxyethyl)acetamide] | 0.5 to 2 |
| O=C(COc1ccc(Cl)c(F)c1)NC12CCC(NC(=O)COc3ccccn3)(C1)C2 [Compound 404, 2-(4-chloro-3-fluorophenoxy)-N-(4-{2-[(pyridin-2-yl)oxy]acetamido}bicyclo[2.1.1]hexan-1-yl)acetamide] | 0.5 to 2 |
| O=C(COc1cccc(OC(F)F)c1)NC12CC(NC(=O)COc3ccc(Cl)c(F)c3)(C1)C2 [Compound 396, 2-(4-chloro-3-fluorophenoxy)-N-(3-{2-[3-(difluoromethoxy)phenoxy]acetamido}bicyclo[1.1.1]pentan-1-yl)acetamide] | 0.01 to 0.05 |
| O=C(COc1ccc(Cl)c(F)c1)NC12CCC(N[C@H](CCOc3ccc(Cl)cc3)C(=O)O)(CC1)C[C@@H]2O (single isomer, unassigned) [Compound 693] | 0.5 to 2 |
| O=C(Cc1ccc(OC(F)(F)F)cc1)NC12CCC(NC(=O)COc3ccc(Cl)c(F)c3)(CC1)C(O)C2 (centres unmarked) [Compound 340, 2-(4-chloro-3-fluorophenoxy)-N-(2-hydroxy-4-{2-[4-(trifluoromethoxy)phenyl]acetamido}bicyclo[2.2.2]octan-1-yl)acetamide] | 0.05 to 0.25 |
| O=C(COc1ccc(Cl)cc1)NC12CCC(NC(=O)COc3ccc(F)c(Cl)c3)(CC1)CC2 [Compound 743, 2-(3-chloro-4-fluorophenoxy)-N-{4-[2-(4-chlorophenoxy)acetamido]bicyclo[2.2.2]octan-1-yl}acetamide] | < 0.01 |
| O=C(COc1ccc(Cl)c(F)c1)NC12CC(NS(=O)(=O)Cc3ccc(F)c(F)c3)(C1)C2 [Compound 483, 2-(4-chloro-3-fluorophenoxy)-N-(3-{[(3,4-difluorophenyl)methanesulfonyl]amino}bicyclo[1.1.1]pentan-1-yl)acetamide] | > 2 |
| O=C(COc1ccc(Cl)c(O)c1)NC12CCC(NC(=O)COc3ccc(Cl)c(F)c3)(CC1)[C@@H](O)C2 [Compound 574, 2-(4-chloro-3-fluorophenoxy)-N-{(2S)-4-[2-(4-chloro-3-hydroxyphenoxy)acetamido]-2-hydroxybicyclo[2.2.2]octan-1-yl}acetamide] | < 0.01 |
| O=C(CCCOc1cccc(Cl)c1)NC12CC(NC(=O)COc3ccc(Cl)c(F)c3)(C1)C2 [Compound 148, N-{3-[2-(4-chloro-3-fluorophenoxy)acetamido]bicyclo[1.1.1]pentan-1-yl}-4-(3-chlorophenoxy)butanamide] | 0.05 to 0.25 |
| O=C(COc1ccc(Cl)c(F)c1)NC1CCC2(NC(=O)COc3ccc(Cl)c(F)c3)CCC1C2 (centres unmarked) [Compound 573, N,N′-(bicyclo[3.2.1]octane-1,4-diyl)bis[2-(4-chloro-3-fluorophenoxy)acetamide]] | < 0.01 |
| O=C(COc1ccc(Cl)c(F)c1)NC12CC(NC(=O)CC(=O)c3ccc(Cl)cc3)(C1)C2 [Compound 293, N-{3-[2-(4-chloro-3-fluorophenoxy)acetamido]bicyclo[1.1.1]pentan-1-yl}-3-(4-chlorophenyl)-3-oxopropanamide] | 0.25 to 0.5 |
| Cc1ncc2c(c1OCC(=O)NC13CCC(NC(=O)COc4ccc(Cl)c(F)c4)(CC1)C[C@@H]3O)COC2 [Compound 499, 2-(4-chloro-3-fluorophenoxy)-N-[(3S)-3-hydroxy-4-{2-[(6-methyl-1,3-dihydrofuro[3,4-c]pyridin-7-yl)oxy]acetamido}bicyclo[2.2.2]octan-1-yl]acetamide] | > 2 |
| O=C(COc1ccc(F)c(F)c1)NC12CCC(NC(=O)COc3ccc4c(c3)OC(F)(F)O4)(CC1)C(O)C2 (centres unmarked) [Compound 362, 2-[(2,2-difluoro-2H-1,3-benzodioxol-5-yl)oxy]-N-{4-[2-(3,4-difluorophenoxy)acetamido]-2-hydroxybicyclo[2.2.2]octan-1-yl}acetamide] | < 0.01 |
| O=C(COc1ccc(Cl)c(F)c1)NC12CC(NC(=O)COc3ccc(C(F)(F)F)cn3)(C1)C2 [Compound 214, 2-(4-chloro-3-fluorophenoxy)-N-[3-(2-{[5-(trifluoromethyl)pyridin-2-yl]oxy}acetamido)bicyclo[1.1.1]pentan-1-yl]acetamide] | 0.05 to 0.25 |
| O=C(COc1ccc2c(c1)OCCO2)NC12CCC(NC(=O)COc3ccc(Cl)c(F)c3)(CC1)[C@@H](O)C2 [Compound 758, 2-(4-chloro-3-fluorophenoxy)-N-[(2S)-4-{2-[(2,3-dihydro-1,4-benzodioxin-6-yl)oxy]acetamido}-2-hydroxybicyclo[2.2.2]octan-1-yl]acetamide] | < 0.01 |
| O=C(COc1ccc(Cl)c(F)c1)N[C@]12CC[C@](NC(=O)COc3ccc(Cl)c(F)c3)(C1)[C@H](O)C2 (racemic) [Compound 579, rac-N,N′-[(1S,2R,4R)-2-hydroxybicyclo[2.2.1]heptane-1,4-diyl]bis[2-(4-chloro-3-fluorophenoxy)acetamide]] | 0.01 to 0.05 |
| O=C(COc1ccc(Cl)c(F)c1)NC12CC(NC(=O)COc3cnc(C(F)(F)F)c(Cl)c3)(C1)C2 [Compound 222, 2-(4-chloro-3-fluorophenoxy)-N-[3-(2-{[5-chloro-6-(trifluoromethyl)pyridin-3-yl]oxy}acetamido)bicyclo[1.1.1]pentan-1-yl]acetamide] | < 0.01 |
| O=C(COc1cccnc1)NC12CC(NC(=O)COc3ccc(Cl)c(Cl)c3)(C1)C2 [Compound 405, 2-(3,4-dichlorophenoxy)-N-(3-{2-[(pyridin-3-yl)oxy]acetamido}bicyclo[1.1.1]pentan-1-yl)acetamide] | 0.05 to 0.25 |
